Data published in patent US20240391930A1, “SPIROCYCLIC BICYCLIC MODULATORS OF CHOLESTEROL BIOSYNTHESIS AND THEIR USE FOR PROMOTING REMYELINATION” (GENENTECH, INC., priority 2021, published 2024).

Columns and labels:
[1] = tested on: zymostenol accumulation in EpiSC-derived OPCs (EBP); experiment: GC/MS-based sterol profiling (zymostenol accumulation); assay type: cell-based; conditions: Mus musculus, 24 hours, 8 doses from 0.15 nM to 333 nM, read-out: Zymostenol GCMS EC50
Procedure: To assess effects of treatments on OPCs, all treatments were assayed in two or more independent platings of epiblast stem cell-derived OPCs (EpiSC). EpiSC-derived OPCs were obtained using in vitro differentiation protocols and culture conditions described previously (Najm et al, 2011, Nature Methods). OPCs were expanded and frozen down in aliquots. OPCs were thawed into growth conditions for at least one passage before use in further assays.
Sterols were monitored using a modified Folch wash protocol (Hubler et al, 2018, Nature). EpiSC-derived OPCs were plated at 100,000 cells per well in PO- and laminin-coated 96-well plates in N2B27 media without growth factors. After 24 hours, cells were rinsed with saline and plates were frozen. Cholesterol-d7 standard was then added to each well before drying under nitrogen stream and derivatization with 55 μl of bis(trimethylsilyl) trifluoroacetamide. After derivatization, 2 μl were analyzed by gas chromatography/mass spectrometry using an Agilent 5973 Network Mass Selective Detector equipped with a 6890 gas chromatograph system and a HP-5MS capillary column (30 m×0.25 mm×[…]). Samples were analyzed in full scan mode using electron impact ionization; ion fragment peaks were integrated to calculate sterol abundance, and quantitation was relative to cholesterol-d7. The following ion fragments were used to quantitate each metabolite: cholesterol-d7 (465), FF-Mas (482), cholesterol (368), zymostenol (458), zymosterol (456), Desmosterol (456, 343), 7-dehydrocholesterol (456, 325), lanosterol (393), lathosterol (458), 14-dehydrozymostenol (456, 351). […] All standards were obtained from Avanti Polar Lipids unless otherwise indicated. Calibration curves were generated by injecting varying concentrations of sterol standards and maintaining a fixed amount of cholesterol-D7. For normalized zymostenol accumulation results, the total amount of zymostenol measured after drug treatment was divided by the total amount of zymostenol accumulated after 24 hr treatment with 100 nM positive control reference.

[2] = target: T1, human emopamil binding protein and human 7-dehydrocholesterol reductase (hEBP-DHCR7) (Homo sapiens, UniProt Q15125); experiment: hEBP-DHCR7 radioligand filtration binding assay; conditions: membranes of HEK293 co-expressing hEBP and DHCR7; [3H] 2-thia-6-azaspiro[3.4]octane radioligand; 8 doses 0.06 to 5000 nM
T1 construct: expressed in transfected cells; host or cells: HEK 293 cells, transient transfection with 2 DNA constructs
Procedure: Membrane Preparation: human emopamil binding protein and human 7-dehydrocholesterol reductase co-expressing cells were generated by transient transfecting host human embryonic kidney (HEK) 293 cells with 2 DNA constructs containing each protein's coding sequence. Cells were suspension cultured at 37° C. with 5% CO2 in […] 293 Expression Medium (Thermofisher). Whole cell membrane was prepared by harvesting the cell pellet, adding cold membrane buffer (50 mM Tris, pH7.5, lx Roche COMPLETE EDTA-free protease inhibitor cocktail) 10 times volume of the cell pellets weight, lysing cell pellet on ice by using Dounce homogenizer, spinning at 200 g 4° C. for 15 min, collecting supernatant and spinning again at 25000 g 4° C. for 50 min, transferring pellet to Dounce homogenizer, re-suspending pellet by homogenizing in membrane buffer on ice to reach ˜25 mg/mL, then keeping whole cell membrane aliquots at −80° C.
Compounds were prepared in a 96-well U bottom plate using an Echo550 machine and 10 mM compound DMSO stock solution, followed by an 8-dose 5-fold serial dilutions protocol with final testing compound concentration ranging from 0.06 to 5000 nM, with DMSO back fill to 100 nL/well and n=2. […] The UniFilter-96 GF/B plates were pre-treated by adding 50 µl/well of 0.3% (v/v) PEI to UniFilter-96 GF/B plates. The plates were sealed and incubated at 4° C. for 3 hrs. Then, the plates were washed with ice-cold assay buffer 3 times. The radioligand binding assay was prepared by adding assay buffer diluted hEBP-DHCR7 membrane at 66.7 μg/ml×150 l/well into the 96-well compound plate to reach 10 μg membrane per well. Then, the assay buffer diluted [3H]—((S)-6-(2-Methyl-3-(6-(trifluoromethyl)pyridin-3-yl)propyl)-2-thia-6-azaspiro[3.4]octane 2,2-dioxide or (R)-6-(2-Methyl-3-(6-(trifluoromethyl)pyridin-3-yl)propyl)-2-thia-6-azaspiro[3.4]octane 2,2-dioxide) was added at 25 nM×50 l/well. Following this, the plate was centrifuged at 1000 rpm for 30 secs. The plate was then sealed and agitated at 600 rpm at 22° C. for 5 min, and then incubated at 22° C. for 3 hrs. The incubation was stopped by transferring the binding solution to the pre-treated UniFilter-96 GF/B plate, vacuum filtrated, and then washed four times with ice-cold assay buffer. Following this, the plates were dried at 37° C. for 45 min. The plates were then sealed at the bottom. 40 µl/well of scintillation cocktail was added to the plates. A MicroBeta2 microplate counter was then used to read the plate and analyze the data. For reference and test compounds, the results are expressed as % Inhibition, using the normalization equation: N=100−100×(U−C2)/(C1−C2), where U is the unknown value, C1 is the average of high controls, and C2 is the average value of low controls. The IC50 was determined by fitting percentage of inhibition as a function of compound concentrations with Hill equation using XLfit. Results are expressed as hEBP-DHCR7 Ki (uM) in Table 4. Ki was calculated as described above; * indicates isolated isomer or isomers, but that the stereochemistry has not been assigned.

T1 sequence (Q15125 whole entry): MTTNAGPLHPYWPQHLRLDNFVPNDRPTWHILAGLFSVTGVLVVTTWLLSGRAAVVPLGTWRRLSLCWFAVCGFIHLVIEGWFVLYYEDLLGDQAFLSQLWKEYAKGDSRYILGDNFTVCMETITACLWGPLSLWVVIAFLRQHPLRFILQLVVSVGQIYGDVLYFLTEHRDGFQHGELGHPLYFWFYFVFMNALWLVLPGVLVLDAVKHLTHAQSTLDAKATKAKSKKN

Row | SMILES | EC50 [1] | Ki [2]
1 | CCn1nc(-c2cncc(F)c2)cc1[C@H]1[C@@H]2C[C@@H](N3CCC4(CC3)CS(=O)(=O)C4)C[C@@H]21 (single isomer, unassigned) [Compound 66*] | 35 nM | 26.4 nM
2 | CCn1nc(-c2cncc(F)c2)cc1[C@H]1[C@@H]2C[C@H](N3CCC4(CC3)CS(=O)(=O)C4)C[C@@H]21 (single isomer, unassigned) [Compound 67*] | 37 nM | 171 nM
3 | CC(C)(C)n1nc(C(F)(F)F)nc1[C@H]1[C@@H]2C[C@@H](N3CCC4(C3)CS(=O)(=O)C4)C[C@@H]21 (single isomer, unassigned) [Compound 77*] | 330 nM | 93 nM
4 | CC(C)(C)n1nc(C(F)(F)F)nc1[C@H]1[C@@H]2C[C@H](N3CCC4(C3)CS(=O)(=O)C4)C[C@@H]21 (single isomer, unassigned) [Compound 78*] | 53 nM | 33.6 nM
5 | CC(C)n1nc(-c2cccc(C(F)(F)F)n2)cc1[C@H]1[C@@H]2C[C@@H](N3CCC[C@@]4(CCS(=O)(=O)C4)C3)C[C@@H]21 (single isomer, unassigned) [Compound 80*] | 4.3 nM | –
6 | CC(C)n1nc(-c2cccc(C(F)(F)F)n2)cc1[C@H]1[C@@H]2C[C@@H](N3CCC[C@]4(CCS(=O)(=O)C4)C3)C[C@@H]21 (single isomer, unassigned) [Compound 81*] | 27 nM | –
7 | CC(C)n1nc(-c2cccc(C(F)(F)F)n2)cc1[C@H]1[C@@H]2C[C@H](N3CCC[C@@]4(CCS(=O)(=O)C4)C3)C[C@@H]21 (single isomer, unassigned) [Compound 82*] | 3.6 nM | –
8 | O=S1(=O)CC[C@]2(CCCN([C@@H]3C[C@@H]4[C@H](C3)[C@H]4c3cc(C(F)(F)F)nn3CC(F)F)C2)C1 (single isomer, unassigned) [Compound 87*] | > 330 nM | 94.6 nM
9 | O=S1(=O)CC[C@]2(CCCN([C@H]3C[C@@H]4[C@H](C3)[C@H]4c3cc(C(F)(F)F)nn3CC(F)F)C2)C1 (single isomer, unassigned) [Compound 89*] | 270 nM | 128 nM
10 | CC(C)n1nc(C(F)(F)F)cc1[C@H]1[C@@H]2C[C@H](N3CCC[C@@]4(CCS(=O)(=O)C4)C3)C[C@@H]21 (single isomer, unassigned) [Compound 94*] | 3.47 nM | –
11 | CC(C)n1nc(C(F)(F)F)cc1[C@H]1[C@@H]2C[C@H](N3CCC[C@]4(CCS(=O)(=O)C4)C3)C[C@@H]21 (single isomer, unassigned) [Compound 95*] | 58.3 nM | –
12 | O=S1(=O)CC2(CCN([C@@H]3C[C@@H]4[C@H](C3)[C@H]4c3cc(C(F)(F)F)n(CC(F)F)n3)CC2)C1 (single isomer, unassigned) [Compound 96*] | 37.9 nM | 438 nM
13 | CC(C)n1nc([C@H]2CC[C@@](O)(C(F)(F)F)CC2)cc1[C@H]1[C@@H]2C[C@@H](N3CCC4(C3)CS(=O)(=O)C4)C[C@@H]21 (single isomer, unassigned) [Compound 105*] | 110 nM | 554 nM
14 | CC(C)n1nc([C@H]2CC[C@@H](C(F)(F)F)CC2)cc1[C@H]1[C@@H]2C[C@@H](N3CCC4(C3)CS(=O)(=O)C4)C[C@@H]21 (single isomer, unassigned) [Compound 106] | 14.6 nM | 13.1 nM
15 | CCn1nc(-c2ccccn2)cc1[C@H]1[C@@H]2C[C@@H](N3CCC4(C3)CS(=O)(=O)C4)C[C@@H]21 [Compound 72, 6-((1R,3s,5S,6r)-6-(1-Ethyl-3-(pyridin-2-yl)-1H-pyrazol-5-yl)bicyclo[3.1.0]hexan-3-yl)-2-thia-6-azaspiro[3.4]octane 2,2-dioxide] | 47 nM | 303 nM

Further lines, results first:

Row | EC50 [1] | Ki [2] | SMILES
16 | 44 nM | 203 nM | CCn1nc(-c2cccnc2)cc1[C@H]1[C@@H]2C[C@@H](N3CCC4(C3)CS(=O)(=O)C4)C[C@@H]21 (single isomer, unassigned) [Compound 64*]
17 | 2.2 nM | 11.8 nM | CC(C)(C)n1nc(-c2cccc(C(F)(F)F)c2)nc1[C@H]1[C@@H]2C[C@H](N3CCC4(C3)CS(=O)(=O)C4)C[C@@H]21 (single isomer, unassigned) [Compound 76]
18 | 41 nM | – | CC(C)n1nc(-c2cccc(C(F)(F)F)n2)cc1[C@H]1[C@@H]2C[C@H](N3CCC[C@]4(CCS(=O)(=O)C4)C3)C[C@@H]21 (single isomer, unassigned) [Compound 83*]
19 | 13 nM | 21.2 nM | O=S1(=O)CC[C@@]2(CCCN([C@@H]3C[C@@H]4[C@H](C3)[C@H]4c3cc(C(F)(F)F)nn3CC(F)F)C2)C1 (single isomer, unassigned) [Compound 86*]
20 | 7.7 nM | 18.9 nM | O=S1(=O)CC[C@@]2(CCCN([C@H]3C[C@@H]4[C@H](C3)[C@H]4c3cc(C(F)(F)F)nn3CC(F)F)C2)C1 (single isomer, unassigned) [Compound 88*]
21 | 24 nM | 16.3 nM | O=S1(=O)CC2(CCN([C@H]3C[C@@H]4[C@H](C3)[C@H]4c3cc(C(F)(F)F)nn3CC(F)F)C2)C1 (single isomer, unassigned) [Compound 91*]
22 | 240 nM | – | CC(C)n1nc(C(F)(F)F)cc1[C@H]1[C@@H]2C[C@@H](N3CCC[C@]4(CCS(=O)(=O)C4)C3)C[C@@H]21 (single isomer, unassigned) [Compound 93*]
23 | 22.1 nM | 6.85 nM | O=S1(=O)CC2(CCN([C@H]3C[C@@H]4[C@H](C3)[C@H]4c3cc(C(F)(F)F)n(CC(F)F)n3)CC2)C1 (single isomer, unassigned) [Compound 97]
24 | 2.4 nM | 10.3 nM | CC(C)n1nc(-c2cccc(C(F)(F)F)c2)nc1[C@H]1[C@@H]2C[C@H](N3CCC4(C3)CS(=O)(=O)C4)C[C@@H]21 [Compound 52, 6-((1R,3r,5S,6r)-6-(1-isopropyl-3-(3-(trifluoromethyl)phenyl)-1H-1,2,4-triazol-5-yl)bicyclo[3.1.0]hexan-3-yl)-2-thia-6-azaspiro[3.4]octane 2,2-dioxide]
25 | 3 nM | – | CC(C)n1nc(-c2cccc(C(F)(F)F)c2)nc1[C@H]1[C@@H]2C[C@@H](N3CCC4(CC3)CS(=O)(=O)C4)C[C@@H]21 [Compound 79, 7-((1R,3s,5S,6r)-6-(1-isopropyl-3-(3-(trifluoromethyl)phenyl)-1H-1,2,4-triazol-5-yl)bicyclo[3.1.0]hexan-3-yl)-2-thia-7-azaspiro[3.5]nonane 2,2-dioxide]
